From ChEMBL document CHEMBL6074636, “Design and activity evaluation of new EGFR tyrosine kinase inhibitors containing cyclic polyamines” (Bioorg Med Chem Lett, 2024)
Activity calls are given as the source filed them. The calls are words filed in the database; no cut-off is given here.

Legend:
[1] = test system: A549; assay: cells; format: functional, cell-based; conditions: Homo sapiens, A549, 48 h
Description: Antiproliferative activity against human A549 cells expressing wild type EGFR assessed as inhibition of cell growth incubated for 48 hrs by CCK assay

[2] = test system: PC-9; assay: cells; format: functional, cell-based; conditions: Homo sapiens, PC-9, 48 h
Description: Antiproliferative activity against human PC-9 cells expressing EGFR del19/T790M/C797S triple mutant assessed as inhibition of cell growth incubated for 48 hrs by CCK assay

[3] = test system: PC-9; assay: cells; format: functional, cell-based; conditions: Homo sapiens, PC-9, 48 h; remark: listed apart in the source
Description: Antiproliferative activity against human PC-9 cells assessed as inhibition of cell growth incubated for 48 hrs by CCK assay

[4] = test system: NCI-H1975; assay: cells; format: functional, cell-based; conditions: Homo sapiens, NCI-H1975, 48 h
Description: Antiproliferative activity against human NCI-H1975 cells assessed as inhibition of cell growth incubated for 48 hrs by CCK assay

[5] = molecular target: Epidermal growth factor receptor (Homo sapiens, UniProt P00533, C797S/L858R/T790M); assay: Inhibition of EGFR L858R/T790M/C797S triple mutant (unknown origin)
[6] = molecular target: Epidermal growth factor receptor (Homo sapiens, UniProt P00533, EX19DEL); assay: Inhibition of EGFR del19 mutant (unknown origin)
[7] = test system: PC-9; assay: Inhibition of colony formation in human PC-9 cells expressing EGFR del19/T790M/C797S triple mutant at 100 nM; format: functional, cell-based
[8] = test system: PC-9; assay: Inhibition of colony formation in human PC-9 cells expressing EGFR del19/T790M/C797S triple mutant at 1 uM; format: functional, cell-based
[9] = Cytotoxicity against human BEAS-2B cells assessed as inhibition of cell growth incubated for 48 hrs by CCK-8 assay; format: toxicity, cell-based
[10] = test system: PC-9; assay: Inhibition of cell migration in human PC-9 cells expressing EGFR del19/T790M/C797S triple mutant at 1 uM incubated for 48 hrs by transwell assay; format: functional, cell-based
[11] = test system: PC-9; assay: Antiproliferative activity against human PC-9 cells expressing EGFR del19/T790M/C797S triple mutant assessed as reduction in cell proliferation at 100 to 500 nM incubated for 48 hrs Edu staining based analysis; format: functional; conditions: dose 100-500 nM
[12] = Selectivity index, ratio of IC50 for cytotoxicity against human BEAS-2B cells assessed as inhibition of cell growth to IC50 for antiproliferative activity against human PC-9 cells expressing EGFR del19/T790M/C797S triple mutant assessed as inhibition of cell growth; format: toxicity, cell-based; conditions: read-out: Ratio IC50

Sequence of Epidermal growth factor receptor (Homo sapiens, UniProt P00533, C797S/L858R/T790M) (P00533 25-1210 T790M/C797S/L858R limits assumed): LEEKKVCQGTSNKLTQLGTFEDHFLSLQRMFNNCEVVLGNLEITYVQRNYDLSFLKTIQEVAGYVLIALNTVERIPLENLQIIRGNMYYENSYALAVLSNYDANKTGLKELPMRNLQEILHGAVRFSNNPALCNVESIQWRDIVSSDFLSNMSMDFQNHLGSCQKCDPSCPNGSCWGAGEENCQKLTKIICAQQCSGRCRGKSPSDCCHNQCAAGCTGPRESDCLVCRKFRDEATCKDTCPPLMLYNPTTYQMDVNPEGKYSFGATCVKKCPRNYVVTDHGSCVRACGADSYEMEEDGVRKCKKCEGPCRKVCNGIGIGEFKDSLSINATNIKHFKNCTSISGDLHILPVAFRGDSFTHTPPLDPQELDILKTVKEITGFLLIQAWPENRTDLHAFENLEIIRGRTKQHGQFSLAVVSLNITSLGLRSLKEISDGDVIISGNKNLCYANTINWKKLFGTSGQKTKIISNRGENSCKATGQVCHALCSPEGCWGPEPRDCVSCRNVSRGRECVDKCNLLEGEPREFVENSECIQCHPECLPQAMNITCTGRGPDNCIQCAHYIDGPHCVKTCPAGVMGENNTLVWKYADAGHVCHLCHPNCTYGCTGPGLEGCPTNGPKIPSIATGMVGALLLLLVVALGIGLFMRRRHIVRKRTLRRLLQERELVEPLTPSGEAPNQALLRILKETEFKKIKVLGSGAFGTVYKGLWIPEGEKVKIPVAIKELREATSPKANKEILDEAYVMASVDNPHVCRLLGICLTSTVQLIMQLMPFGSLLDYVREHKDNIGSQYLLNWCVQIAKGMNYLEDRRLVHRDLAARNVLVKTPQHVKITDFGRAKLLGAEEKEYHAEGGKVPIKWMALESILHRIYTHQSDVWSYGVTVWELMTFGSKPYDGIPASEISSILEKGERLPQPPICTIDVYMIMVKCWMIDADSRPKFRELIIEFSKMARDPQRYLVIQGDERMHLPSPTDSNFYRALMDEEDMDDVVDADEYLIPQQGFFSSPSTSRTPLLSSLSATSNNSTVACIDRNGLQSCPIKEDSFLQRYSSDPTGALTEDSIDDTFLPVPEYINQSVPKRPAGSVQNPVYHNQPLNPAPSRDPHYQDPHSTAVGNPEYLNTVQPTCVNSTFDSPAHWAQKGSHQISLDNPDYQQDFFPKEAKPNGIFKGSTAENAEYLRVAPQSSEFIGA
Sequence of Epidermal growth factor receptor (Homo sapiens, UniProt P00533, EX19DEL) (P00533 whole entry, looked up, stated change not applied): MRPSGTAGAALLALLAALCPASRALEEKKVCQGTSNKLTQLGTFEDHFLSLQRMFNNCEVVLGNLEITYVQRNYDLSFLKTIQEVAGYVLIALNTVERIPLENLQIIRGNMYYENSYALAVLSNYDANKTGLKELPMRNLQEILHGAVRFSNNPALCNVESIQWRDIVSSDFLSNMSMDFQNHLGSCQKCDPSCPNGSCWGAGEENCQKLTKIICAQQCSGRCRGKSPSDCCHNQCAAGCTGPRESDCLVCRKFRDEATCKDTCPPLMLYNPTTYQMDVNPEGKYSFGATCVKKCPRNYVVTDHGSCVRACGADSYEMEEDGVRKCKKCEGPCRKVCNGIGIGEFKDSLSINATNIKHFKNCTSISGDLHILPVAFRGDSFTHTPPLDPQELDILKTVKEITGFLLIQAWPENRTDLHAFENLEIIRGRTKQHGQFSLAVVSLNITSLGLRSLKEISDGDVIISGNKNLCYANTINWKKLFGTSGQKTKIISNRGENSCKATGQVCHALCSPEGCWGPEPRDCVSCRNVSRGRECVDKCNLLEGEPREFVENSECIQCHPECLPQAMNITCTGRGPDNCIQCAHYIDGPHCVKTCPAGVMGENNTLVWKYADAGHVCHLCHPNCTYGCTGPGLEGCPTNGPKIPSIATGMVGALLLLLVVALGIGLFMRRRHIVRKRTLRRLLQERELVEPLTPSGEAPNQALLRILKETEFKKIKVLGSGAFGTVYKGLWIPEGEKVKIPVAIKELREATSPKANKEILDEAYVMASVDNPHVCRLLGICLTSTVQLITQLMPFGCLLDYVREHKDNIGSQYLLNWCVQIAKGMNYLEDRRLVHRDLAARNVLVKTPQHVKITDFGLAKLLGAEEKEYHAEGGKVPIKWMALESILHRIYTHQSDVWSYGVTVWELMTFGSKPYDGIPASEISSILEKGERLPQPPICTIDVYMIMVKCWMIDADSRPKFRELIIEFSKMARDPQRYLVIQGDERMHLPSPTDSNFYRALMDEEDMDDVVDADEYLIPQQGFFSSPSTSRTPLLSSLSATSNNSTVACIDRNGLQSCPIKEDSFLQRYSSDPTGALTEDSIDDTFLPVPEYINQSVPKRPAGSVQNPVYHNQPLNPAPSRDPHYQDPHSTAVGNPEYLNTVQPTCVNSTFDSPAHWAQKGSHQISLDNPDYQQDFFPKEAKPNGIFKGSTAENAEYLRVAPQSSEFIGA

| Structure (SMILES) | IC50 [1] [µM] | IC50 [2] [µM] | IC50 [3] [µM] | IC50 [4] [µM] | IC50 [5] [µM] | IC50 [6] [µM] | inhibition [7] | inhibition [8] | IC50 at 48 h [9] [µM] | inhibition [10] | Activity [11] | selectivity ratio [12] |
| --- | --- | --- | --- | --- | --- | --- | --- | --- | --- | --- | --- | --- |
| O=C(O)CN1CCN(CC(=O)O)CC(=O)Nc2cc3c(Nc4ccc(Cl)cc4Cl)ncnc3cc2NC(=O)C1 | > 100 | 11 | 1.66 | 4.54 | – | – | – | – | – | – | – | – |
| CCc1cccc(Nc2ncnc3cc4c(cc23)NC(=O)CN(CC(=O)O)CCN(CC(=O)O)CC(=O)N4)c1 | > 100 | 1.52 | 10.2 | 8.11 | 0.321 | 0.378 | – | – | – | – | – | – |
| COc1cccc(Nc2ncnc3cc4c(cc23)NC(=O)CN(CC(=O)O)CCN(CC(=O)O)CC(=O)N4)c1 | 35.1 | 6.7 | 12.3 | 3.04 | – | – | – | – | – | – | – | – |
| O=C(O)CN1CCN(CC(=O)O)CC(=O)Nc2cc3c(Nc4cccc(F)c4)ncnc3cc2NC(=O)C1 | 0.946 | 0.496 | 1.13 | 1.41 | 0.161 | 0.136 | Active | Active | 17.2 | Active | Active | 34.7 |
| O=C1CNCCNCC(=O)Nc2cc3c(Nc4ccc(F)c(Cl)c4)ncnc3cc2N1 | 1.38 | 4.61 | 12.5 | 4.43 | > 1000 | > 1000 | – | – | – | – | – | – |
| O=C(O)CN1CCN(CC(=O)O)CC(=O)Nc2cc3c(Nc4ccc(F)c(Cl)c4)ncnc3cc2NC(=O)C1 | > 100 | 13.2 | 7.87 | 18.9 | – | – | – | – | – | – | – | – |
| O=C(O)CN1CCN(CC(=O)O)CC(=O)Nc2cc3c(Nc4ccc(OCc5cccc(F)c5)c(Cl)c4)ncnc3cc2NC(=O)C1 | 4.02 | 1.09 | 6.57 | 2.49 | 0.22 | 0.18 | – | – | – | – | – | – |
| C#Cc1cccc(Nc2ncnc3cc4c(cc23)OCCOCCOCCO4)c1 [ICOTINIB] | 56 | 1.26 | 1.53 | 5.75 | – | – | – | – | – | – | – | – |
| CCc1cc(Br)ccc1Nc1ncnc2cc3c(cc12)NC(=O)CN(CC(=O)O)CCN(CC(=O)O)CC(=O)N3 | 3.32 | 3.43 | 49.3 | 4.85 | – | – | – | – | – | – | – | – |
| C=CC(=O)Nc1cc(Nc2nccc(-c3cn(C)c4ccccc34)n2)c(OC)cc1N(C)CCN(C)C [OSIMERTINIB] | 0.637 | 0.912 | 0.08 | […] | – | – | – | – | 20.1 | – | – | – |
| O=C(O)CN1CCN(CC(=O)O)CC(=O)Nc2cc3c(Nc4cccc(Cl)c4)ncnc3cc2NC(=O)C1 | 2.26 | 84 | 30.7 | 23.3 | – | – | – | – | – | – | – | – |
| O=C(O)CN1CCN(CC(=O)O)CC(=O)Nc2cc3c(Nc4ccccc4)ncnc3cc2NC(=O)C1 | 3.91 | 14.2 | 32.9 | 3.91 | – | – | – | – | – | – | – | – |
| O=C(O)CN1CCN(CC(=O)O)CC(=O)Nc2cc3c(Nc4ccc(Br)cc4F)ncnc3cc2NC(=O)C1 | 7.78 | 0.767 | 2.7 | 3.44 | 0.251 | 0.161 | – | – | – | – | – | – |
| O=C(O)CN1CCN(CC(=O)O)CC(=O)Nc2cc3c(Nc4cccc(Br)c4)ncnc3cc2NC(=O)C1 | > 100 | 3.6 | 31.6 | 4.41 | – | – | – | – | – | – | – | – |
